Entries after “also recorded” stand apart in the source; their conditions may differ.

Data set [1] has as its system B cell receptor signals (CD69). Put plainly: Whole blood B cell receptor signaling, anti-IgD stimulated CD69 on CD19+ B cells. Type of data set: cell-based. Conditions: whole blood of four healthy donors, 2 hours incubation, anti-human IgD 18 hours. How it is done: Blood from four healthy donors was incubated for 2 hours with the compounds shown over a concentration range, and then stimulated with anti-human IgD [10 μg/mL] for 18 hours. The mean fluorescent intensity (MFI) of CD69 (and CD86, data not shown) on gated CD19+ B cells was measured by flow cytometry.

Data set [2] concerns human platelet-mediated thrombosis. The data set is described as follows: In vivo human thrombus formation in the VWF HA1 mice model (laser-induced injury). Conditions: pretreated human platelets. The method, then: Constitutive or aberrant activation of the BCR signaling cascade has been implicated in the propagation and maintenance of a variety of B cell malignancies. […] J. Haematol. […] In fact, both Tec and BTK play an important role in the regulation of phospholipase Cγ2 (PLCγ2) downstream of the collagen receptor glycoprotein VI (GPVI) in human platelets. […] Biotechnol.
Injury to the vessel wall of arterioles ([…] diameter) was performed using a pulsed nitrogen dye laser (440 nm, Photonic Instruments) applied through a 20× water-immersion Olympus objective (LUMPlanFl, 0.5 numerical aperature (NA)) of a Zeiss Axiotech vario microscope. […] The extent of thrombus formation was assessed for 2 minutes after injury and the area (μm^2) of coverage determined (Image IQ, Andor Technology).
The BTK inhibitor-treated human platelets were fluorescently labeled and infused continuously through a catheter inserted into the femoral artery.

The subject of a further data set is Raji cells. The data set is described as follows: Antibody-dependent NK cell-mediated cytotoxicity, chromium release assay. Type of data set: cell-based. Conditions: 1 μM; chromium-labeled Raji cells, 4 hours, variable rituximab concentrations, effector:target ratio 25:1; FIG. 134.
Data set [3] has as its system GPVI platelet aggregation. The data set is described as follows: GPVI (convulxin-induced) platelet aggregation. It counts as cell-based. Conditions: human platelets. How it is done:
GPVI platelet aggregation was measured for Formula (XVIII) and Formula XX-A (ibrutinib). Blood was obtained from untreated humans, and platelets were purified from […] by centrifugation. Cells were resuspended to a final concentration of 350,000/μL in buffer containing 145 mmol/L NaCl, 10 mmol/L HEPES, 0.5 mmol/L Na2HPO4, 5 mmol/L KCl, 2 mmol/L MgCl2, 1 mmol/L CaCl2, and 0.1% glucose, at pH 7.4. Stock solutions of […] were prepared on the day of experimentation and added to platelet suspensions 5 minutes (37° C., 1200 rpm) before the induction of aggregation. Aggregation was assessed with a Chronolog Lumi-Aggregometer (model 540 VS; Chronolog, Havertown, Pa.) and permitted to proceed for 6 minutes after the addition of agonist. The results are reported as maximum percent change in light transmittance from baseline with platelet buffer used as a reference.
In FIG. 126, the results of CVX-induced (250 ng/mL) human platelet aggregation results before and 15 minutes after administration of the BTK inhibitors to 6 healthy individuals are shown.

As a reminder, the EC50 is the concentration needed to bring the measured effect to its halfway point. The low end stands for an effect from little substance, the high end for a need for much substance. Turning to `C=CC(=O)Nc1cccc(Nc2nc(Nc3ccc(OCCOC)cc3)ncc2F)c1` [CC-292, N-(3-((5-fluoro-2-((4-(2-methoxyethoxy)phenyl)amino)pyrimidin-4-yl)amino)phenyl)acrylamide, reference compound], a half-maximal effect in data set [1] (EC50) was put at 121 nM. In addition, the “Effect on human platelet-mediated thrombus formation” value in data set [2] is on record as “interfere with thrombus formation; also recorded: showed an effect similar to Formula XX-A (ibrutinib)”.

With `C=CC(=O)N1CCC[C@@H](n2nc(-c3ccc(Oc4ccccc4)cc3)c3c(N)ncnc32)C1` [ibrutinib, reference compound], the “antibody-dependent NK cell-mediated cytotoxicity (percent lysis of tumor cells)” value in the data set on Raji cells is “antagonizes”. For the same compound, the GPVI platelet aggregation result in data set [3] is reported as “significantly inhibits GPVI platelet aggregation”.

Values taken from US20170224819A1, “Therapeutic Combinations of a BTK Inhibitor, a PI3K Inhibitor, a JAK-2 Inhibitor, and/or a CDK 4/6 Inhibitor” (Acerta Pharma B.V., priority 2014, published 2017).
